Results reported in patent US20230079448A1, “DEVICES AND METHODS FOR NEGATIVE PRESSURE THERAPY” (APPLIED TISSUE TECHNOLOGIES LLC, priority 2020, published 2023).

Tests used:
common bacteria = conditions: typical value; cited from earlier work
[1] = Activity of gel-based therapeutics after short-term storage; type: physicochemical; conditions: 0.5% (agarose) hydrogel
Text: According to Table 1, gel-therapeutic agent preparations comprising an antibiotic and a 0.5% (agarose) hydrogel may be stable for up to one week. Drugs dissolve passively into the gel and stay stable over time. In some embodiments, the gel-therapeutic agent preparation may further comprise saline. The gel may be biocompatible, meaning that it is structurally similar to the extracellular matrix in tissues. The gel may be flowable, allowing, for example, casting into a mold or injection via needle through a port. The loading of the […] agent preparation in the device may allow consistent and uniform contact with the skin even with patient movement, maintaining continuous delivery of the therapeutic agent to the underlying tissue. The gel-therapeutic agent preparation may prevent loss of the therapeutic agent in the event of a minor leak in the adhesive of the sealing portion of the device.

## CN[C@H](CC(C)C)C(=O)N[C@H]1C(=O)N[C@@H](CC(N)=O)C(=O)N[C@H]2C(=O)N[C@H]3C(=O)N[C@H](C(=O)N[C@H](C(=O)O)c4cc(O)cc(O)c4-c4cc3ccc4O)[C@H](O)c3ccc(c(Cl)c3)Oc3cc2cc(c3O[C@@H]2O[C@H](CO)[C@@H](O)[C@H](O)[C@H]2O[C@H]2C[C@](C)(N)[C@H](O)[C@H](C)O2)Oc2ccc(cc2Cl)[C@H]1O [vancomycin]
Common bacteria
  MIC: around 2 micrograms per mL or cm^3

## Gentamicin
[1]; after 3 days storage
  Drug activity: 2.41 µg/mL
[1]; after 7 days storage
  Drug activity: 2.04 µg/mL
Common bacteria
  MIC: around 2 micrograms per mL or cm^3
